# Measured values as given in patent US20240415914A1, “Water Dispersible Cannabinoid Compositions” (priority 2021, published 2024).
# Read-outs that look alike come from different tables or passages of the source.
# Tests used:
# [1] = Stability of cannabinoid and Vitamin E components of Beverage 2 (AB Red) stored at 8° C. and 21-25° C., LCMSMS over 570 days
# Experimental: The LCMSMS was calibrated for 0-50 ng/ml cannabinoids with the same resin material used in the preparation of the concentrates. At each time period, 100 μml of beverage was diluted with 10 ml of methanol and injected into the LCMSMS for analysis.
# [2] = format: physicochemical; conditions: stored at room temperature (21-25° C.)
# Experimental: At each time period, 0.05 g of powder was dissolved in 10 ml-15 of ethanol, diluted to fall within the analytical range, and injected into the LCMSMS for analysis.
compound,measurement,setting,value
"CCCc1cc(O)c2c(c1)OC(C)(C)[C@@H]1CCC(C)=C[C@@H]21 [THCV, delta-9-tetrahydrocannabivarin]",Stability of Cannabinoids in AB Red,"[1]; 8° C., 0 days",3.22 µg/mL
same,Stability of Cannabinoids in AB Red,"[1]; 8° C., 1 days",3.19 µg/mL
same,Stability of Cannabinoids in AB Red,"[1]; 8° C., 2 days",3.17 µg/mL
same,Stability of Cannabinoids in AB Red,"[1]; 8° C., 3 days",3.20 µg/mL
same,Stability of Cannabinoids in AB Red,"[1]; 8° C., 5 days",3.24 µg/mL
same,Stability of Cannabinoids in AB Red,"[1]; 8° C., 8 days",3.17 µg/mL
same,Stability of Cannabinoids in AB Red,"[1]; 8° C., 9 days",3.14 µg/mL
same,Stability of Cannabinoids in AB Red,"[1]; 8° C., 10 days",3.14 µg/mL
same,Stability of Cannabinoids in AB Red,"[1]; 8° C., 11 days",3.24 µg/mL
same,Stability of Cannabinoids in AB Red,"[1]; 8° C., 12 days",3.25 µg/mL
same,Stability of Cannabinoids in AB Red,"[1]; 8° C., 15 days",3.19 µg/mL
same,Stability of Cannabinoids in AB Red,"[1]; 8° C., 16 days",3.25 µg/mL
same,Stability of Cannabinoids in AB Red,"[1]; 8° C., 17 days",3.12 µg/mL
same,Stability of Cannabinoids in AB Red,"[1]; 8° C., 18 days",3.17 µg/mL
same,Stability of Cannabinoids in AB Red,"[1]; 8° C., 19 days",3.19 µg/mL
same,Stability of Cannabinoids in AB Red,"[1]; 8° C., 22 days",3.22 µg/mL
same,Stability of Cannabinoids in AB Red,"[1]; 8° C., 23 days",3.25 µg/mL
same,Stability of Cannabinoids in AB Red,"[1]; 8° C., 24 days",3.15 µg/mL
same,Stability of Cannabinoids in AB Red,"[1]; 8° C., 25 days",3.25 µg/mL
same,Stability of Cannabinoids in AB Red,"[1]; 8° C., 26 days",3.13 µg/mL
same,Stability of Cannabinoids in AB Red,"[1]; 8° C., 29 days",3.22 µg/mL
same,Stability of Cannabinoids in AB Red,"[1]; 8° C., 30 days",3.20 µg/mL
same,Stability of Cannabinoids in AB Red,"[1]; 8° C., 60 days",3.11 µg/mL
same,Stability of Cannabinoids in AB Red,"[1]; 8° C., 90 days",3.10 µg/mL
same,Stability of Cannabinoids in AB Red,"[1]; 8° C., 120 days",3.10 µg/mL
same,Stability of Cannabinoids in AB Red,"[1]; 8° C., 150 days",3.15 µg/mL
same,Stability of Cannabinoids in AB Red,"[1]; 8° C., 180 days",3.10 µg/mL
same,Stability of Cannabinoids in AB Red,"[1]; 8° C., 210 days",3.15 µg/mL
same,Stability of Cannabinoids in AB Red,"[1]; 8° C., 240 days",3.08 µg/mL
same,Stability of Cannabinoids in AB Red,"[1]; 8° C., 270 days",3.15 µg/mL
same,Stability of Cannabinoids in AB Red,"[1]; 8° C., 300 days",3.15 µg/mL
same,Stability of Cannabinoids in AB Red,"[1]; 8° C., 330 days",3.15 µg/mL
same,Stability of Cannabinoids in AB Red,"[1]; 8° C., 390 days",3.08 µg/mL
same,Stability of Cannabinoids in AB Red,"[1]; 8° C., 420 days",3.13 µg/mL
same,Stability of Cannabinoids in AB Red,"[1]; 8° C., 450 days",3.08 µg/mL
same,Stability of Cannabinoids in AB Red,"[1]; 8° C., 480 days",3.05 µg/mL
same,Stability of Cannabinoids in AB Red,"[1]; 8° C., 510 days",2.95 µg/mL
same,Stability of Cannabinoids in AB Red,"[1]; 8° C., 540 days",2.99 µg/mL
same,Stability of Cannabinoids in AB Red,"[1]; 8° C., 570 days",2.95 µg/mL
same,Stability of Cannabinoids in AB Red,"[1]; 21-25° C., 0 days",3.22 µg/mL
same,Stability of Cannabinoids in AB Red,"[1]; 21-25° C., 1 days",3.13 µg/mL
same,Stability of Cannabinoids in AB Red,"[1]; 21-25° C., 2 days",3.20 µg/mL
same,Stability of Cannabinoids in AB Red,"[1]; 21-25° C., 3 days",3.25 µg/mL
same,Stability of Cannabinoids in AB Red,"[1]; 21-25° C., 5 days",3.25 µg/mL
same,Stability of Cannabinoids in AB Red,"[1]; 21-25° C., 8 days",3.19 µg/mL
same,Stability of Cannabinoids in AB Red,"[1]; 21-25° C., 9 days",3.17 µg/mL
same,Stability of Cannabinoids in AB Red,"[1]; 21-25° C., 10 days",3.09 µg/mL
same,Stability of Cannabinoids in AB Red,"[1]; 21-25° C., 11 days",3.24 µg/mL
same,Stability of Cannabinoids in AB Red,"[1]; 21-25° C., 12 days",3.24 µg/mL
same,Stability of Cannabinoids in AB Red,"[1]; 21-25° C., 15 days",3.20 µg/mL
same,Stability of Cannabinoids in AB Red,"[1]; 21-25° C., 16 days",3.20 µg/mL
same,Stability of Cannabinoids in AB Red,"[1]; 21-25° C., 17 days",3.11 µg/mL
same,Stability of Cannabinoids in AB Red,"[1]; 21-25° C., 18 days",3.19 µg/mL
same,Stability of Cannabinoids in AB Red,"[1]; 21-25° C., 19 days",3.19 µg/mL
same,Stability of Cannabinoids in AB Red,"[1]; 21-25° C., 22 days",3.18 µg/mL
same,Stability of Cannabinoids in AB Red,"[1]; 21-25° C., 23 days",3.23 µg/mL
same,Stability of Cannabinoids in AB Red,"[1]; 21-25° C., 24 days",3.25 µg/mL
same,Stability of Cannabinoids in AB Red,"[1]; 21-25° C., 25 days",3.24 µg/mL
same,Stability of Cannabinoids in AB Red,"[1]; 21-25° C., 26 days",3.11 µg/mL
same,Stability of Cannabinoids in AB Red,"[1]; 21-25° C., 29 days",3.15 µg/mL
same,Stability of Cannabinoids in AB Red,"[1]; 21-25° C., 30 days",3.15 µg/mL
same,Stability of Cannabinoids in AB Red,"[1]; 21-25° C., 60 days",3.18 µg/mL
same,Stability of Cannabinoids in AB Red,"[1]; 21-25° C., 90 days",3.05 µg/mL
same,Stability of Cannabinoids in AB Red,"[1]; 21-25° C., 120 days",3.09 µg/mL
same,Stability of Cannabinoids in AB Red,"[1]; 21-25° C., 150 days",3.17 µg/mL
same,Stability of Cannabinoids in AB Red,"[1]; 21-25° C., 180 days",3.10 µg/mL
same,Stability of Cannabinoids in AB Red,"[1]; 21-25° C., 210 days",3.03 µg/mL
same,Stability of Cannabinoids in AB Red,"[1]; 21-25° C., 240 days",3.18 µg/mL
same,Stability of Cannabinoids in AB Red,"[1]; 21-25° C., 270 days",3.04 µg/mL
same,Stability of Cannabinoids in AB Red,"[1]; 21-25° C., 300 days",3.14 µg/mL
same,Stability of Cannabinoids in AB Red,"[1]; 21-25° C., 330 days",3.19 µg/mL
same,Stability of Cannabinoids in AB Red,"[1]; 21-25° C., 390 days",3.04 µg/mL
same,Stability of Cannabinoids in AB Red,"[1]; 21-25° C., 420 days",3.10 µg/mL
same,Stability of Cannabinoids in AB Red,"[1]; 21-25° C., 450 days",3.14 µg/mL
same,Stability of Cannabinoids in AB Red,"[1]; 21-25° C., 480 days",3.04 µg/mL
same,Stability of Cannabinoids in AB Red,"[1]; 21-25° C., 510 days",3.01 µg/mL
same,Stability of Cannabinoids in AB Red,"[1]; 21-25° C., 540 days",2.95 µg/mL
same,Stability of Cannabinoids in AB Red,"[1]; 21-25° C., 570 days",2.98 µg/mL
same,Stability in Powder Concentrate (content by LCMSMS),[2]; day 0,0.680 mg/g powder
same,Stability in Powder Concentrate (content by LCMSMS),[2]; day 1,0.685 mg/g powder
same,Stability in Powder Concentrate (content by LCMSMS),[2]; day 2,0.699 mg/g powder
same,Stability in Powder Concentrate (content by LCMSMS),[2]; day 3,0.698 mg/g powder
same,Stability in Powder Concentrate (content by LCMSMS),[2]; day 5,0.676 mg/g powder
same,Stability in Powder Concentrate (content by LCMSMS),[2]; day 8,0.685 mg/g powder
same,Stability in Powder Concentrate (content by LCMSMS),[2]; day 9,0.693 mg/g powder
same,Stability in Powder Concentrate (content by LCMSMS),[2]; day 10,0.706 mg/g powder
same,Stability in Powder Concentrate (content by LCMSMS),[2]; day 11,0.708 mg/g powder
same,Stability in Powder Concentrate (content by LCMSMS),[2]; day 12,0.698 mg/g powder
same,Stability in Powder Concentrate (content by LCMSMS),[2]; day 15,0.684 mg/g powder
same,Stability in Powder Concentrate (content by LCMSMS),[2]; day 16,0.658 mg/g powder
same,Stability in Powder Concentrate (content by LCMSMS),[2]; day 17,0.681 mg/g powder
same,Stability in Powder Concentrate (content by LCMSMS),[2]; day 18,0.690 mg/g powder
same,Stability in Powder Concentrate (content by LCMSMS),[2]; day 19,0.705 mg/g powder
same,Stability in Powder Concentrate (content by LCMSMS),[2]; day 22,0.703 mg/g powder
same,Stability in Powder Concentrate (content by LCMSMS),[2]; day 23,0.687 mg/g powder
same,Stability in Powder Concentrate (content by LCMSMS),[2]; day 24,0.668 mg/g powder
same,Stability in Powder Concentrate (content by LCMSMS),[2]; day 25,0.689 mg/g powder
same,Stability in Powder Concentrate (content by LCMSMS),[2]; day 26,0.686 mg/g powder
same,Stability in Powder Concentrate (content by LCMSMS),[2]; day 29,0.706 mg/g powder
same,Stability in Powder Concentrate (content by LCMSMS),[2]; day 30,0.659 mg/g powder
same,Stability in Powder Concentrate (content by LCMSMS),[2]; day 60,0.702 mg/g powder
same,Stability in Powder Concentrate (content by LCMSMS),[2]; day 90,0.707 mg/g powder
same,Stability in Powder Concentrate (content by LCMSMS),[2]; day 120,0.658 mg/g powder
same,Stability in Powder Concentrate (content by LCMSMS),[2]; day 150,0.695 mg/g powder
same,Stability in Powder Concentrate (content by LCMSMS),[2]; day 180,0.685 mg/g powder
same,Stability in Powder Concentrate (content by LCMSMS),[2]; day 210,0.662 mg/g powder
same,Stability in Powder Concentrate (content by LCMSMS),[2]; day 240,0.700 mg/g powder
same,Stability in Powder Concentrate (content by LCMSMS),[2]; day 270,0.670 mg/g powder
same,Stability in Powder Concentrate (content by LCMSMS),[2]; day 300,0.685 mg/g powder
same,Stability in Powder Concentrate (content by LCMSMS),[2]; day 330,0.691 mg/g powder
same,Stability in Powder Concentrate (content by LCMSMS),[2]; day 360,0.668 mg/g powder
same,Stability in Powder Concentrate (content by LCMSMS),[2]; day 390,0.680 mg/g powder
same,Stability in Powder Concentrate (content by LCMSMS),[2]; day 420,0.671 mg/g powder
same,Stability in Powder Concentrate (content by LCMSMS),[2]; day 450,0.680 mg/g powder
same,Stability in Powder Concentrate (content by LCMSMS),[2]; day 480,0.695 mg/g powder
same,Stability in Powder Concentrate (content by LCMSMS),[2]; day 510,0.696 mg/g powder
same,Stability in Powder Concentrate (content by LCMSMS),[2]; day 540,0.664 mg/g powder
same,Stability in Powder Concentrate (content by LCMSMS),[2]; day 570,0.686 mg/g powder
